Like-named read-outs stand apart in the source and are kept apart here.
Key:
[1] = Deoxyribose degradation as a measure of hydroxyl radical formation; assay type: biochemical; settings: 75 μM test compound; controls < 0.1
Description: ^c Deoxyribose degradation as a measure of hydroxyl radical formation
Indicated values are μmoles of malondialdehyde per mmole of deoxyribos
released by 75 μM test compound (controls < 0.1).
Degradation of deoxyribose provides a measurement of the amount of hydroxyl radical formation caused by the test compounds. The assay used to determine degradation of 2-deoxy-D-ribose followed generally the procedures of Gutteridge, J. M. C., Biochem. J., 224: 761-767 (1984) and Laughton, et al., Biochem. Pharmacol., 38: 2859-2865 (1989). The following reagents were added to glass tubes in the order and at the final concentrations listed. 0.3 mL kH2 PO4 --KOH buffer, pH 7.4 (30 mM), 0.2 ml double distilled H2 O, 0.2 ml 2-deoxy-D-ribose (2 mM), 0.2 ml FeCl3.6H2 O (0.1 mM), 0.1 ml 2-substituted anthracenone ([…]). Stock solutions of each of the 2-substituted anthracenone compounds were made up fresh before use. Appropriate blanks and controls using an acetronitrile vehicle were performed.
Final reaction volumes were standardized to 1.0 ml. The reaction mixtures were incubated for 2 hours at 37° C. in a shaking water bath at 50 rpm. 1 ml of 2.8% (w/v) trichloracetic acid and 1 ml of 1% (w/v in 0.05 N NaOH) 2-thiobarbituric acid (TBA) were added, and the samples were heated at 100° C. for 15 minutes and then cooled in an ice bath (5 minutes). 2 ml of each reaction mixture was treated with 0.05 ml of 36% (w/v) HCl and 2 of 1-butanol, followed by vigorous shaking with a vortex mixer (Heidolph) for 15 seconds. The organic layer was separated by centrifugation at 3000 rpm (15 minutes) and absorbance at 532 nm was measured against butanol. Calibration was performed using a malondialdehyde (MDA) standard prepared by hydrolysis of 1,1,3,3-tetraethoxypropane (Gutteridge, J. M. C., Anal. Biochem., 69: 518-526 (1975). TBA reactive material was expressed in terms of μmol MDA per μmol deoxyribose. The results of the assay are provided in Table I.

HaCaT cells [2] = assay: Antiproliferative activity against HaCaT cells (human keratinocyte cell line); assay type: cell-based; settings: 48 h, read-out: AA IC50 (antiproliferative activity)
Description: HaCaT cells were grown in Dulbecco's modified Eagle's medium (DMEM, No. 041-11954A, Gibco) supplemented with 10% fetal calf serum, penicillin (100 U/mL), and streptomycin (100 μg/mL) in a humidified incubator containing 8% CO2 at 37° C. Cells (2.5·10^4 /1.1 ml per well) were seeded on 24-well multidishes and grown in DMEM. After 24 hours of growth, the medium was replaced with fresh medium and a test compound (0.1-5 μM) was added from freshly made stock solutions, which were prepared in DMSO and diluted with DMEM. The final concentration of DMSO in the culture medium was 0.2%. Controls were performed using DMSO or medium alone. Forty-eight hours after addition of a test compound to the culture, the medium was removed and each well was rinsed with phosphate-buffered saline (PBS, 100 μL). The cells were then incubated with sterile 0.5% trypsin, 0.2% EDTA in PBS for 20 minutes at 37° C. The detached cells from each well were suspended in DMEM and dispersed as single cells by gentle pipetting through an Eppendorf pipette. Cell growth was determined directly by counting the keratinocytes on a Neubauer counting chamber using phase contrast microscopy. Inhibition of cell proliferation was calculated by a comparison of the mean value of the test compound (N=3) with the control (N=6-8) activity: (1-test compound/control)×100.

[3] = Inhibition of AAPH-induced lipid peroxidation in bovine brain phospholipid liposomes; assay type: biochemical; settings: AAPH-induced; bovine brain phospholipid liposomes; N = 3 or more; read-out: LPO IC50 (inhibition of lipid peroxidation)
Description: Phospholipids were prepared essentially as described by Gutteridge, J. M. C., (Anal. Biochem., 82: 76-82 (1977)). Bovine brain tissue was cooled on ice, freed from blood vessels and washed repeatedly with 0.15 M NaCl, pH 7.4. The tissue was cut into pieces and then macerated with an ultra-turrax, passed through a fine-meshed sieve, and extracted four times with four times the volume of acetone. The extraction mixture was filtered by suction to remove the acetone, the residue dried under vacuum, and then repeatedly extracted with petroleum ether (40-60) using twice the volume of the original brain homogenate. The combined extracts were filtered, dried at 45° C., and dissolved in ether (one fifth the original brain volume). The mixture was treated with five times the volume of acetone, and the resulting precipitate was collected by suction-filtration, dried and stored under N2 at -20° C. in the dark. Bovine brain phospholipids were weighed into glass tubes and shaken in a vortex mixer (Heidolph) in the presence of five small glass beads (.phi. 4 mm) for 1 minute. The phospholipids were suspended in 0.15 M NaCl, pH 7.4, to a final concentration of 5 mg/ml. The mixture was purged with N2 for 1 minute and vigorously dispersed in a vortex mixer for 5 minutes. The liposomes were allowed to swell for 1 hour at 4° C., and vesicles with a mean size of 1-10 μm were obtained according to the method of Bangham, et al., (J. Mol. Biol., 13:238-252 (1965). The liposomes were stimulated with the azo initiator 2 2'-azobis (2-amidinopropane) hydrochloride according to the method of Gutteridge, J. M. C., (Anal. Biochem. 82:76-82 (1977)).
The following reagents were added to the glass tubes containing stimulating bovine brain phospholipid piposomes in the order and at the final concentrations listed: 0.3 ml HK2 PO4 --KOH buffer, pH 7.4 (30 mM), 0.29 ml double distilled H2 O, 0.2 ml liposomes (1 mg/ml), 0.2 ml FeCl3.H2 O (0.1 mM), 0.01 ml 2-substituted anthracenone compound of the invention (variable concentrations).
Appropriate blanks and controls using the vehicle (acetone) were conducted. The final reaction volumes were standardized to 1.0 ml. The reaction mixtures were incubated for 1 hour at 37° C. in a shaking water bath. […] of 20% (w/v) BHT, 0.5 ml 25% (w/v) HCl and 0.5 ml of 1% 2-thiobarbituric acid were added and the samples were heated at 100° C. for 15 minutes and then cooled in an ice bath (5 minutes). 2 ml of 1-butanol were added and the mixtures were vigorously shaken in a vortex mixer (Heidolph) for 15 seconds. The organic layer was separated by centrifugation at 3000 rpm (15 minutes) and absorbance at 532 nm was measured against butanol.

HaCaT cells [4] = settings: cited from earlier work
[5] = test system: LTB4 production in human neutrophils; settings: depending on cell density, read-out: IC50, inhibition of LTB4 production, human neutrophils; cited from earlier work
[6] = psoriasis therapy; cited from earlier work
[7] = cited from earlier work
5-LO in bovine PMNL = biological target: T1, 5-LO in bovine PMNL (Bos taurus, UniProt F1MQ78); assay: Inhibition of 5-lipoxygenase (5-HETE and LTB4 biosynthesis) in Ca-ionophore-stimulated bovine PMNL; assay type: cell-based
T1 construct: The purified PMNLs were suspended at a concentration of; endogenous in cells; host or cells: polymorphonuclear leukocytes isolated from bovine blood
T1 sequence (F1MQ78 1-674): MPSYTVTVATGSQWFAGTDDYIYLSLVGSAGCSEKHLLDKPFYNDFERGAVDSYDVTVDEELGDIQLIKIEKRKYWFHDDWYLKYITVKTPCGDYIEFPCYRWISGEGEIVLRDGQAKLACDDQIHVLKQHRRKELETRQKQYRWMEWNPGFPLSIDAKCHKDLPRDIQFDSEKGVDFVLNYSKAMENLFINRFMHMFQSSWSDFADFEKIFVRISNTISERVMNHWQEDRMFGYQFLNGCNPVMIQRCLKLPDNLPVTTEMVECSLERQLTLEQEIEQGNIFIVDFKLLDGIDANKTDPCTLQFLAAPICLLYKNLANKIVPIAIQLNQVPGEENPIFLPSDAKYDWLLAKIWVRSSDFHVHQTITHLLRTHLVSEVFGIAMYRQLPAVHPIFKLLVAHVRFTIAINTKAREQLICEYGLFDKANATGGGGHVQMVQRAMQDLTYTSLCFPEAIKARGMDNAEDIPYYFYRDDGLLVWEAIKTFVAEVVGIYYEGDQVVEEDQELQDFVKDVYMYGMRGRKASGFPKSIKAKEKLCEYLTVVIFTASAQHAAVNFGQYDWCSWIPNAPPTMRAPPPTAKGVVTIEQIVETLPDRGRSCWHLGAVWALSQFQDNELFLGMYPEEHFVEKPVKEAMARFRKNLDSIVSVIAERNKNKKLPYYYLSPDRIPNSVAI
Description: Briefly, PMNLs were prepared from sodium EDTA-anticoagulated bovine blood, essentially as described by Walstra, P. et al., (Biochem. Biophys. Acta, 795:499-503 (1984)). Contaminating platelets were removed by repeated centrifugations at 100 g for 20 minutes. […] Cell counts were conducted with a Sysmex micro cell counter CC-130. Preincubation was performed with 2.4 ml of the suspension and 10 μl of a DMSO stock solution of test compounds at the desired concentrations in phosphate buffered saline (PBS) or vehicle control (DMSO at final concentration of 0.4%) for 15 minutes at 37° C. in a shaking water bath at 50 rpm. […] The incubation mixture was held on ice bath for 20 minutes and then centrifuged at 4000 g for 5 minutes at 0° C. The supernatant was diluted with 5 ml of water and passed through a prewashed (10 ml of methanol and 5 ml of water, sequentially) octadecylsilane reversed phase cartridge (Baker). The eicosanoids were eluted with 3 ml of methanol, diluted with 3 ml of water and subjected to reversed phase HPLC analysis using a 250×4 mm column packed with Nucleosil C18 (7 μm particles; Bischoff, Leonberg, Germany). The isocratic elution conditions of LTB4 were tetrahydrofuran (THF)/methanol/water/acetic acid (25+30+45+0.1), adjusted to pH 5.5 with concentrated NH3, at a flow rate of 0.9 ml/min (Kontron 420 pump), monitored at 280 nm with a Kontron 735 LC UV detector. 5-HETE was monitored at 232 nm using methanol/water/acetic acid (77+23+0.1), pH 5.5 and a flow rate 1.0 ml/min. Data were recorded on a MacLab data acquisition system (WissTech, Germany) and analysis was performed using the application Peaks on an Apple Macintosh Quadra 700 computer. Integrated areas of the peaks were compared to a PGB2 internal standard and to external standards of authentic samples. Molar absorption coefficients of Samuelsson et al., Borgeat, P. and B. Samuelsson, (Proc. Natl. Acad. Sci. USA, 76:2148-2152 (1979)), were used for making calculations. Inhibition was calculated by a comparison of the mean value of test compound (n=3) with control (n=6-8) activity: (1-test compound/control)×100.
See Walstra, P. et al., Biochem Biophys. Acta, 795:499-503 (1984); and Dannhardt et al. J. Pharm. Pharmacol., 44:419-424 (1992). […] (Schroder, J. M., J. Invest. Dermatol., 87:624-629 (1986); Tanzer, et al., Arch. Pharm. (Weinheim), 324:841-846 (1991)).

Row | SMILES | DD (deoxyribose degradation, malondialdehyde released) [1] | IC50 (HaCaT cells [2]) [µM] | IC50 [3] [µM] | sensitivity of HaCaT cells to antiproliferative action (HaCaT cells [4]) | IC50 [5] [µM] | side effects of anthralin therapy [6] | lipid peroxidation in the presence of iron [7] | IC50 (5-LO in bovine PMNL; N = 3 or more) [µM] | IC50 (5-LO in bovine PMNL; comparison with compounds of the invention, read-out: IC50) [µM]
1 | CN(O)C(=O)Cc1ccc2c(c1O)C(=O)c1c(O)cccc1C2 [ID, N-Hydroxy-N-methyl-(9,10-dihydro-1,8-dihydroxy-9-oxo-2-anthracene)acetamide] | 1.67 ± 0.08 μmol of MDA/mmol | 0.8 | 29 | – | – | – | – | – | –
2 | O=C(O)CCCCc1ccc2c(c1O)C(=O)c1c(O)cccc1C2 [IVA, 5-(9,10-Dihydro-1,8-dihydroxy-9-oxo-2-anthracene) pentanoic acid] | 2.62 ± 0.41 μmol of MDA/mmol | > 5 | 105 | – | – | – | – | – | –
3 | O=C(CCCCc1ccc2c(c1O)C(=O)c1c(O)cccc1C2)NO [IVC, N-Hydroxy-5-(9,10-dihydro-1,8-dihydroxy-9-oxo-2-anthracene)pentanamide] | 1.38 ± 0.09 μmol of MDA/mmol | 2 | 62 | – | – | – | – | – | –
4 | CC(C)C(C(=O)O)c1ccc2c(c1O)C(=O)c1c(O)cccc1C2 (stereo not shown) [VIIIA, 2-(9,10-Dihydro-1,8-dihydroxy-9-oxo-2-anthracene)-3-methylbutanoic acid] | 3.58 ± 0.30 μmol of MDA/mmol | > 5 | 155 | – | – | – | – | – | –
5 | CC(C)C(C(=O)N(C)O)c1ccc2c(c1O)C(=O)c1c(O)cccc1C2 (stereo not shown) [VIIID, N-Hydroxy-N-methyl-2-(9,10-dihydro-1,8-dihydroxy-9-oxo-2-anthracene)-3-methylbutanamide] | 0.86 ± 0.01 μmol of MDA/mmol | 1.5 | 12.5 | – | – | – | – | – | –
6 | O=C1c2c(O)cccc2Cc2ccc(C(CCc3ccccc3)C(=O)O)c(O)c21 (stereo not shown) [XA, 2-(9,10-Dihydro-1,8-dihydroxy-9-oxo-2-anthracene)-4-phenylbutanoic acid] | 2.47 ± 0.16 μmol of MDA/mmol | > 5 | 62 | – | – | – | – | – | –
7 | O=C1c2c(O)cccc2Cc2cccc(O)c21 [anthralin] | 2.89 ± 0.14 μmol of MDA/mmol | 0.5 to 0.7 | – | extremely sensitive target for the antiproliferative action of anthralin | 7 to 74 | increased inflammation and irritation of non-effected skin surrounding treated lesions | enhancement of anthralin-induced lipid peroxidation in the presence of iron | – | –
8 | CCCCOc1ccc(CC(=O)NO)cc1 [bufexamac, reference compound] | – | > 5 | > 200 | – | – | – | – | > 30 | > 30
